Converted amounts (≈) assume the structure as drawn. “Also recorded” adds a separate entry of the source. Like-named read-outs stand apart in the source and are kept apart here.
Legend:
Bt E264 = assay type: cell-based, Burkholderia thailandensis
Bm 23344 = assay type: cell-based, Burkholderia mallei
E. coli 25922 = test: MIC by broth microdilution, E. coli 25922; assay type: cell-based, Escherichia coli; details: for MIC: Escherichia coli, E. coli 25922, broth microdilution
[1] = tested on: E. coli resistant isolate 1; test: MIC by broth microdilution, E. coli resistant isolate 1; assay type: cell-based; details: Escherichia coli; E. coli resistant isolate 1 (Cip-resistant clinical isolate)
[2] = tested on: E. coli resistant isolate 2; test: MIC by broth microdilution, E. coli resistant isolate 2; assay type: cell-based; details: Escherichia coli; E. coli resistant isolate 2 (Cip-resistant clinical isolate)
[3] = tested on: P. aueruginosa ATCC 27853; test: MIC by broth microdilution, P. aeruginosa ATCC 27853; assay type: cell-based, Pseudomonas aeruginosa; details: for MIC: Pseudomonas aeruginosa, ATCC27853
[4] = tested on: P. aeruginosa resistant isolate 1; test: MIC by broth microdilution, P. aeruginosa resistant isolate 1; assay type: cell-based; details: Pseudomonas aeruginosa
[5] = tested on: P. aeruginosa resistant isolate 2; test: MIC by broth microdilution, P. aeruginosa resistant isolate 2; assay type: cell-based; details: Pseudomonas aeruginosa
S. aureus ATCC 29213 = test: MIC by broth microdilution, S. aureus ATCC 29213; assay type: cell-based; details: Staphylococcus aureus, ATCC29213
[6] = tested on: S. aureus resistant isolate 1; test: MIC by broth microdilution, S. aureus resistant isolate 1; assay type: cell-based; details: Staphylococcus aureus
[7] = tested on: S. aureus resistant isolate 2; test: MIC by broth microdilution, S. aureus resistant isolate 2; assay type: cell-based; details: Staphylococcus aureus
Bt [8] = test: microbe, parasite or virus in culture; assay type: cell-based, Burkholderia thailandensis; details: for MIC: Burkholderia thailandensis, read-out: in vitro MIC
E. coli DNA gyrase = biological target: T1, E. coli DNA gyrase (Escherichia coli, UniProt P0AES4+P0AES6); test: E. coli DNA gyrase negative supercoiling assay; assay type: biochemical; details: 100 uM or 500 uM, agarose gel
T1 construct: purchased New England Biolabs

Bp82 (BpeEF-OprC-) = test: microbe, parasite or virus in culture; assay type: cell-based; details: Burkholderia pseudomallei
Bp82.270 (BpeEF-OprC+) = test: microbe, parasite or virus in culture; assay type: cell-based; details: Burkholderia pseudomallei
Bp82.284 (BpeEF-OprC+) = test: microbe, parasite or virus in culture; assay type: cell-based; details: Burkholderia pseudomallei
Bp82.285 (BpeEF-OprC+) = test: microbe, parasite or virus in culture; assay type: cell-based; details: Burkholderia pseudomallei
Bp 1026b [9] = assay type: cell-based, Burkholderia pseudomallei
Bp MSHR305 = assay type: cell-based, Burkholderia pseudomallei
Bt [10] = assay type: cell-based, Burkholderia thailandensis
Bp 1026b [11] = assay type: in vivo, BALB/c mice
HEK293 cells = test: CellTiter-Glo cell viability (cellular toxicity) assay; details: for TD = toxic dose (dose at which HEK293 cell growth is significantly affected): Celltitre-Glo, HEK293 cells; for effect on HEK293 cell viability: concentrations 10-fold higher than the IC100, ATP-depletion assay
[12] = tested on: T6SS-5 secretion activity (Hcp), Bt E264; assay type: cell-based, Burkholderia thailandensis
[13] = tested on: T6SS-5 secretion activity (Hcp), Bp 1026b; assay type: cell-based, Burkholderia pseudomallei
[14] = tested on: virulence loci (virG, bsaM, bimA, vgrG) of Bt E264; assay type: cell-based, Burkholderia thailandensis
Bt [15] = assay type: cell-based, Burkholderia thailandensis; remark: listed apart in the source
[16] = reference 37; cited from earlier work

T1 sequence (P0AES4 whole entry, one chain of several): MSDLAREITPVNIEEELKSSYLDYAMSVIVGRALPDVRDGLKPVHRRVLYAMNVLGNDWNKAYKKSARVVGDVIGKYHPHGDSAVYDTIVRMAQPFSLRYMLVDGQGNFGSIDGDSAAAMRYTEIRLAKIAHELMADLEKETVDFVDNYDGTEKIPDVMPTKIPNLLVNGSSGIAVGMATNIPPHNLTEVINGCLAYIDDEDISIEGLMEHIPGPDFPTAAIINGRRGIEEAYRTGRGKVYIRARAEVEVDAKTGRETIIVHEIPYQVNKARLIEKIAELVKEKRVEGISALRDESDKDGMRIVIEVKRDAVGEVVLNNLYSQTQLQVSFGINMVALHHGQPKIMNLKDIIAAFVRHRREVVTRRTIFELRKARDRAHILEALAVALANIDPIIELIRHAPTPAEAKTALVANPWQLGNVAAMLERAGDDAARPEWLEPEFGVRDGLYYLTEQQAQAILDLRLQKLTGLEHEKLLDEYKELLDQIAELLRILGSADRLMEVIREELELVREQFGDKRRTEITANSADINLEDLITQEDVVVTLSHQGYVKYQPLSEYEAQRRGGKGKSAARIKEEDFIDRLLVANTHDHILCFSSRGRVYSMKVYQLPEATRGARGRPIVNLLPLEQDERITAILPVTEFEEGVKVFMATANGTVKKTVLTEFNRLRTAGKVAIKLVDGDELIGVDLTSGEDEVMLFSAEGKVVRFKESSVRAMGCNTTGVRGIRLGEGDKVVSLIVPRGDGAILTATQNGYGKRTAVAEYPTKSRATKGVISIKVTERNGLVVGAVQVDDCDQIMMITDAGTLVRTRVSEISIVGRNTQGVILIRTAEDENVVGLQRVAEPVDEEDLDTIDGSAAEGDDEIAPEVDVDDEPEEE

For `O=c1[nH]c(=O)n([C@@H]2O[C@H](CO)[C@@H](O)[C@H]2O)cc1F` [F-UR, Fluorouridine], the “plaque formation by Bt” value (Bt E264) was “minimally inhibitory; also recorded: fully inhibitory”.

For `CC[C@@]1([C@@H]2O[C@@H]([C@H]3O[C@@](O)(CO)[C@H](C)C[C@@H]3C)C[C@@H]2C)CC[C@H]([C@]2(C)CC[C@]3(C[C@H](O)[C@@H](C)[C@@H]([C@@H](C)[C@@H](OC)[C@H](C)C(=O)O)O3)O2)O1` [monensin], the “inhibition of plaque formation by Bm 23344 (validation)” value (“inhibition … by Bm 23344 (validation)” below) (Bm 23344) was “specific for Bm only”.

For `COc1cc(Cc2cnc(N)nc2N)cc(OC)c1OC` [trimethoprim], the “inhibition of plaque formation by Bt E264 (screen and validation)” value (from here on “inhibition … (screen and validation)”) (Bt E264) was “inhibitors”.

For `C[C@H]1COc2c(N3CCN(C)CC3)c(F)cc3c(=O)c(C(=O)O)cn1c23` [Levo, levofloxacin], the MIC (E. coli 25922) was 4 µg/mL (≈ 11.1 µM), the MIC [1] was > 7 µg/mL and the MIC [2] was > 7 µg/mL. The MIC [3] was 5 µg/mL (≈ 13.8 µM), the MIC [4] was > 7 µg/mL and the MIC [5] was > 7 µg/mL. The MIC (S. aureus ATCC 29213) was > 7 µg/mL, the MIC [6] was > 7 µg/mL and the MIC [7] was > 7 µg/mL.

In the case of `O=C(O)c1cn(C2CC2)c2cc(N3CCNCC3)c(F)cc2c1=O` [Cip, ciprofloxacin], the MIC (Bt [8]) is reported as 1.3 µg/mL (≈ 3.92 µM), the “negative supercoiling activity of E. coli DNA gyrase” value (E. coli DNA gyrase) is reported as “inhibits the negative supercoiling activity” and the MIC (E. coli 25922) is reported as 2 µg/mL (≈ 6.04 µM). For the same compound, the MIC [3] was 4 µg/mL (≈ 12.1 µM), the MIC [4] was > 7 µg/mL and the MIC [5] was > 7 µg/mL. The MIC (S. aureus ATCC 29213) was > 7 µg/mL, the MIC [6] was > 7 µg/mL and the MIC [7] was > 7 µg/mL. For the same compound, the MIC (Bp82 (BpeEF-OprC-)) was 1 µg/mL (≈ 3.02 µM), the MIC (Bp82.270 (BpeEF-OprC+)) was 16 µg/mL (≈ 48.3 µM) and the MIC (Bp82.284 (BpeEF-OprC+)) was 16 µg/mL (≈ 48.3 µM). The MIC (Bp82.285 (BpeEF-OprC+)) was 16 to 32 µg/mL (≈ 48.3 to 96.6 µM).

With `CCn1cc(C(=O)O)c(=O)c2cc(F)c(N3CCOCC3)cc21` [BFX, 1-Ethyl-6-fluoro-7-(4-morpholinyl)-4-oxo-1,4-dihydro-3-quinolinecarboxylic acid] the “ED = effective dose (IC100) against Bp” value (Bp 1026b [9]) was 0.1 µM, the “inhibition of plaque formation / intercellular spread by Bp 1026b” value (Bp 1026b [9]) was “near-complete inhibition” and the “inhibition of plaque formation by Bp 1026b (validation)” value (Bp 1026b [9]) was “consistently inhibit plaque formation”. The “fold lower concentration than Cip at which plaque formation by Bt is prevented” value (Bt E264) was 8 fold, the “inhibition of plaque formation / intercellular spread by Bt E264” value (Bt E264) was “near-complete inhibition” and the “inhibition … (screen and validation)” value (Bt E264) was “consistently inhibit plaque formation”. For the same compound, the “inhibition … by Bm 23344 (validation)” value (Bm 23344) was “consistently inhibit plaque formation”, the “plaque formation by Bp MSHR305” value (Bp MSHR305; 5 μM) was “effective at ablating plaque formation” and the “intracellular replication of Bt” value (Bt [10]) was “inhibits intracellular replication”. For the same compound, the “dose needed to inhibit growth in laboratory medium” value (Bt [8]) was 5 µM, the “in vitro growth of Bt” value (Bt [8]) was “does not inhibit in vitro growth” and the MIC (Bt [8]) was 2.6 µg/mL (≈ 8.12 µM). The “negative supercoiling activity of E. coli DNA gyrase” value (E. coli DNA gyrase) was “inhibits the negative supercoiling activity”, the “growth of E. coli ATCC 25922 (in words)” value (E. coli 25922) was “inhibitory for the growth” and the MIC (E. coli 25922) was 4 µg/mL (≈ 12.5 µM). The MIC [1] was > 7 µg/mL, the MIC [2] was > 7 µg/mL and the “growth of Pseudomonas aeruginosa ATCC 27853 (in words)” value [3] was “inhibitory for the growth”. For the same compound, the MIC [3] was 4 µg/mL (≈ 12.5 µM), the MIC [4] was > 7 µg/mL and the MIC [5] was > 7 µg/mL. The MIC (S. aureus ATCC 29213) was > 7 µg/mL, the MIC [6] was > 7 µg/mL and the MIC [7] was > 7 µg/mL. For the same compound, the MIC (Bp82 (BpeEF-OprC-)) was 2 µg/mL (≈ 6.24 µM), the MIC (Bp82.270 (BpeEF-OprC+)) was 32 µg/mL (≈ 99.9 µM) and the MIC (Bp82.284 (BpeEF-OprC+)) was 32 µg/mL (≈ 99.9 µM). For the same compound, the MIC (Bp82.285 (BpeEF-OprC+)) was 32 µg/mL (≈ 99.9 µM), the “bacterial loads in liver and spleen compared to lung of surviving mice” value (Bp 1026b [11]; 10 days) was “low or undetectable bacterial loads” and the “bacterial loads in lungs, livers, and spleens” value (Bp 1026b [11]; mouse, in vivo) was “decreased relative to placebo and ceftazidime-treated controls”. The “histopathology: inflammation in pulmonary, hepatic, and splenic tissue” value (Bp 1026b [11]; mouse, in vivo) was “nearly undetectable inflammation”, the “overall efficacy compared to ceftazidime” value (Bp 1026b [11]; mouse, in vivo) was “superiority to ceftazidime” and the “mice surviving the entire study duration (10 days)” value (Bp 1026b [11]; n=8) was 63%. The “mice surviving to five days post-infection” value (Bp 1026b [11]; n=8) was 100%, the “TD = toxic dose (dose at which HEK293 cell growth is significantly affected)” value (HEK293 cells) was >50 µM and the “effect on HEK293 cell viability” value (HEK293 cells) was “no effect on cell viability”.

For `Nc1nc(=O)[nH]cc1F` [5-FC, flucytosine], the “ED = effective dose (IC100) against Bp” value (Bp 1026b [9]) was 3.1 µM, the “inhibition of plaque formation by Bp 1026b (validation)” value (Bp 1026b [9]) was “activity against Bp and Bt” and the “plaque formation by Bp at increasing concentrations” value (Bp 1026b [9]) was “inhibits plaque formation”. For the same compound, the “inhibition … (screen and validation)” value (Bt E264) was “inhibitors; also recorded: activity against Bp and Bt”, the “intercellular spread by time of addition” value (Bt E264) was “robustly inhibits intercellular spread irrespective of time of addition” and the “plaque formation by Bt” value (Bt E264) was “completely inhibits plaque formation; also recorded: completely abolished plaque formation”. The “plaque formation by Bt at increasing concentrations” value (Bt E264) was “inhibits plaque formation”, the “inhibition … by Bm 23344 (validation)” value (Bm 23344) was “ineffective” and the “plaque formation by Bp MSHR305” value (Bp MSHR305) was “effective at ablating plaque formation”. The “decrease in peak intracellular bacterial numbers” value (Bt [10]) was 3 fold, the “intracellular replication of Bt” value (Bt [10]) was “delays and decreases, but does not eliminate” and the “intracellular replication of a fusion defective mutant (ΔvgrG)” value (Bt [10]) was “does not inhibit the intracellular replication”. For the same compound, the “in vitro growth of Bt” value (Bt [8]) was “does not significantly inhibit in vitro growth”, the “expression of Hcp (pellet)” value [12] was “does not affect expression of Hcp” and the “secretion of Hcp (supernatant)” value [12] was “inhibits secretion of Hcp”. For the same compound, the “expression of Hcp (pellet)” value [13] was “does not affect expression of Hcp”, the “secretion of Hcp (supernatant)” value [13] was “inhibits secretion of Hcp” and the “reduction in the expression of virG, bsaM, bimA, and vgrG” value [14] was ≤ 4 fold. For the same compound, the “actin-mediated intracellular motility (bacteria with actin tails)” value (Bt [15]) was “does not inhibit actin-mediated intracellular motility”, the “bacterial loads in liver and spleen compared to lung of surviving mice” value (Bp 1026b [11]; mouse, in vivo) was “low or undetectable bacterial loads” and the “bacterial loads in lungs, livers, and spleens” value (Bp 1026b [11]; mouse, in vivo) was “decreased, although to a lesser extent”. The “histopathology: inflammation in pulmonary, hepatic, and splenic tissue” value (Bp 1026b [11]; mouse, in vivo) was “significantly reduced inflammation”, the “mice surviving the entire study duration (10 days)” value (Bp 1026b [11]; mouse, in vivo) was 12% and the “mice surviving to five days post-infection” value (Bp 1026b [11]; mouse, in vivo) was 36.7%. For the same compound, the “overall efficacy compared to ceftazidime” value (Bp 1026b [11]; mouse, in vivo) was “superiority to ceftazidime”, the bioavailability [16] was “good bioavailability” and the “TD = toxic dose (dose at which HEK293 cell growth is significantly affected)” value (HEK293 cells) was >50 µM. The “effect on HEK293 cell viability” value (HEK293 cells) was “no effect on cell viability”.

With `C[C@@H]1CC[C@H]2[C@@H](C)C(=O)O[C@@H]3O[C@@]4(C)CC[C@@H]1[C@]32OO4` [artemisinin] the “inhibition … by Bm 23344 (validation)” value (Bm 23344) was “specific for Bm only”.

With `O=c1[nH]c(=O)n([C@H]2C[C@H](O)[C@@H](CO)O2)cc1F` [F-UdR, fluorodeoxyuridine] the “plaque formation by Bt” value (Bt E264) was “lack of inhibitory activity”.

With `CC(C)(O/N=C(\C(=O)N[C@@H]1C(=O)N2C(C(=O)[O-])=C(C[n+]3ccccc3)CS[C@H]12)c1csc(N)n1)C(=O)O` [ceftazidime] the “time by which all animals succumbed to infection” value (Bp 1026b [11]; mouse, in vivo) was “by five days”.

With `O=c1[nH]cc(F)c(=O)[nH]1` [5-FU, 5-fluorouracil] the “plaque formation by Bt” value (Bt E264; 25 μM) was “completely abolished plaque formation”.

— patent publication US12357617B2, “Discovery of novel anti-infectives for gram negative pathogens” (priority 2018, dated 2025)
